The values below come from the supplement of paper PMC10307832.

Common to all, as to assay: relative viability (nuclei count vs DMSO), 5 days (fraction); higher = more cells survive
Compound in the experiment “KN-93 + Dasatinib”: CN(C/C=C/C1=CC=C(C=C1)Cl)CC2=CC=CC=C2N(CCO)S(=O)(=O)C3=CC=C(C=C3)OC [KN-93] + Cc1nc(Nc2ncc(C(=O)Nc3c(C)cccc3Cl)s2)cc(N2CCN(CCO)CC2)n1 [Dasatinib] (partner 0.075 µM)
A digest of the protocol:
(§1)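 Lung cancer cell lines, seeded in 1536-well plates, were treated the following day by pin tool with a single drug or with five library-drug doses (not always all listed) in √10 steps on top of a fixed anchor-drug dose. Cells were fixed and nuclei stained in one step after 5 days, and nuclei were counted. Relative viability is the nuclei count for treated wells divided by that for vehicle wells, reported as medians of duplicate plates.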

Compound in the experiment “KN-93 + Crizotinib”: CN(C/C=C/C1=CC=C(C=C1)Cl)CC2=CC=CC=C2N(CCO)S(=O)(=O)C3=CC=C(C=C3)OC [KN-93] + C[C@@H](Oc1cc(-c2cnn(C3CCNCC3)c2)cnc1N)c1c(Cl)ccc(F)c1Cl [Crizotinib] (partner 1 µM)
A digest of the protocol: as §1

Compound in the experiment “KN-93 + Alpelisib”: CN(C/C=C/C1=CC=C(C=C1)Cl)CC2=CC=CC=C2N(CCO)S(=O)(=O)C3=CC=C(C=C3)OC [KN-93] + Cc1nc(NC(=O)N2CCC[C@H]2C(N)=O)sc1-c1ccnc(C(C)(C)C(F)(F)F)c1 [Alpelisib] (partner 2 µM)
A digest of the protocol:
as §1

Compound in the experiment “KN-93 + Olaparib”: CN(C/C=C/C1=CC=C(C=C1)Cl)CC2=CC=CC=C2N(CCO)S(=O)(=O)C3=CC=C(C=C3)OC [KN-93] + O=C(c1cc(Cc2n[nH]c(=O)c3ccccc23)ccc1F)N1CCN(C(=O)C2CC2)CC1 [Olaparib] (partner 8 µM)
A digest of the protocol: as §1

Compound in a further experiment: CN(C/C=C/C1=CC=C(C=C1)Cl)CC2=CC=CC=C2N(CCO)S(=O)(=O)C3=CC=C(C=C3)OC [KN-93]
A digest of the protocol: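 After an overnight hold at 37 °C, lung cancer cell lines in 1536-well plates were pinned with five library-drug doses (not always all listed), each √10 from the next, on vehicle-anchored plates. The cells stayed 5 days without fresh medium, then a one-step fix, permeabilisation and Hoechst stain preceded 4× imaging and MetaXpress nuclear counts. A plate passed only with control CV under 25% and at least one doubling. Viability is the median, over plates, of treated-well nuclei relative to vehicle-well nuclei.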

As to LK-2, the relative viability with KN-93 + Dasatinib (first compound 0.08 µM) is 0.248; with KN-93 + Dasatinib (first compound 0.253 µM), 0.315; in the experiment with KN-93 + Dasatinib (first compound 2.53 µM) it was 0.288; in the experiment with KN-93 + Dasatinib (first compound 8 µM) it was 0.417; with KN-93 + Crizotinib (first compound 0.08 µM), 0.214; with KN-93 + Crizotinib (first compound 0.253 µM), 0.199. The relative viability was 0.216 with KN-93 + Crizotinib (first compound 2.53 µM); 0.27 with KN-93 + Crizotinib (first compound 8 µM); 0.905 with KN-93 + Alpelisib (first compound 0.08 µM); 1.51 with KN-93 + Alpelisib (first compound 0.253 µM); 1.32 with KN-93 + Alpelisib (first compound 2.53 µM); 0.673 in the experiment with KN-93 + Alpelisib (first compound 8 µM). In addition, the relative viability is 0.79 with KN-93 + Olaparib (first compound 0.08 µM); 0.643 with KN-93 + Olaparib (first compound 0.253 µM); 0.89 with KN-93 + Olaparib (first compound 2.53 µM); 0.582 in the experiment with KN-93 + Olaparib (first compound 8 µM); 1.07 with KN-93 (0.08 µM); 1.17 with KN-93 (0.253 µM). Besides, the relative viability with KN-93 (2.53 µM) was found to be 1.37; with KN-93 (8 µM) it was 0.846.

As to LOU-NH91, the relative viability in the experiment with KN-93 + Dasatinib (first compound 0.08 µM) turned out to be 0.504; with KN-93 + Dasatinib (first compound 0.253 µM), 0.532; in the experiment with KN-93 + Dasatinib (first compound 2.53 µM), 0.604; with KN-93 + Dasatinib (first compound 8 µM), 0.458; in the experiment with KN-93 + Crizotinib (first compound 0.08 µM), 0.746; with KN-93 + Crizotinib (first compound 0.253 µM) it was 0.716. The relative viability was 0.75 with KN-93 + Crizotinib (first compound 2.53 µM); 0.703 with KN-93 + Crizotinib (first compound 8 µM); 0.716 with KN-93 + Alpelisib (first compound 0.08 µM); 0.647 with KN-93 + Alpelisib (first compound 0.253 µM); 0.756 with KN-93 + Alpelisib (first compound 2.53 µM); 0.64 with KN-93 + Alpelisib (first compound 8 µM). Moreover, the relative viability was found to be 0.901 with KN-93 + Olaparib (first compound 0.08 µM); 0.809 with KN-93 + Olaparib (first compound 0.253 µM); 0.976 in the experiment with KN-93 + Olaparib (first compound 2.53 µM); 0.847 with KN-93 + Olaparib (first compound 8 µM); 0.988 with KN-93 (0.08 µM); 0.834 with KN-93 (0.253 µM). Besides, the relative viability with KN-93 (2.53 µM) amounted to 0.963; in the experiment with KN-93 (8 µM) it was 0.842.

Consider LU99A, for which the relative viability in the experiment with KN-93 + Dasatinib (first compound 0.08 µM) stood at 0.479; with KN-93 + Dasatinib (first compound 0.253 µM) it was 0.59; with KN-93 + Dasatinib (first compound 2.53 µM), 0.419; with KN-93 + Dasatinib (first compound 8 µM), 0.406; in the experiment with KN-93 + Crizotinib (first compound 0.08 µM), 0.529; in the experiment with KN-93 + Crizotinib (first compound 0.253 µM), 0.703. Moreover, the relative viability in the experiment with KN-93 + Crizotinib (first compound 2.53 µM) worked out at 0.566; with KN-93 + Crizotinib (first compound 8 µM) it was 0.504; with KN-93 + Alpelisib (first compound 0.08 µM), 0.525; with KN-93 + Alpelisib (first compound 0.253 µM), 0.636; with KN-93 + Alpelisib (first compound 2.53 µM), 0.557; with KN-93 + Alpelisib (first compound 8 µM), 0.39. Besides, the relative viability with KN-93 + Olaparib (first compound 0.08 µM) was found to be 0.257; in the experiment with KN-93 + Olaparib (first compound 0.253 µM), 0.271; with KN-93 + Olaparib (first compound 2.53 µM) it was 0.244; in the experiment with KN-93 + Olaparib (first compound 8 µM), 0.264; with KN-93 (0.08 µM) it was 0.953; with KN-93 (0.253 µM), 0.951. Further, the relative viability worked out at 1.01 with KN-93 (2.53 µM) and 0.74 with KN-93 (8 µM).

Regarding NCI-H522, the relative viability was 0.825 with KN-93 + Dasatinib (first compound 0.08 µM); 0.949 with KN-93 + Dasatinib (first compound 0.253 µM); 0.846 with KN-93 + Dasatinib (first compound 2.53 µM); 0.695 with KN-93 + Dasatinib (first compound 8 µM); 0.61 with KN-93 + Olaparib (first compound 0.08 µM); 0.607 with KN-93 + Olaparib (first compound 0.253 µM). Moreover, the relative viability worked out at 0.576 with KN-93 + Olaparib (first compound 2.53 µM); 0.649 with KN-93 + Olaparib (first compound 8 µM); 1.04 in the experiment with KN-93 (0.08 µM); 0.986 in the experiment with KN-93 (0.253 µM); 1.04 with KN-93 (2.53 µM); 0.783 in the experiment with KN-93 (8 µM).

As for NCI-H1395, the relative viability stood at 0.428 with KN-93 + Dasatinib (first compound 0.08 µM); 0.402 in the experiment with KN-93 + Dasatinib (first compound 0.253 µM); 0.708 with KN-93 + Dasatinib (first compound 2.53 µM); 0.31 with KN-93 + Dasatinib (first compound 8 µM); 1.16 with KN-93 + Alpelisib (first compound 0.08 µM); 1.1 in the experiment with KN-93 + Alpelisib (first compound 0.253 µM). Besides, the relative viability in the experiment with KN-93 + Alpelisib (first compound 2.53 µM) turned out to be 1.05; with KN-93 + Alpelisib (first compound 8 µM) it was 0.506; with KN-93 + Olaparib (first compound 0.08 µM), 0.452; with KN-93 + Olaparib (first compound 0.253 µM), 0.48; in the experiment with KN-93 + Olaparib (first compound 2.53 µM), 0.424; with KN-93 + Olaparib (first compound 8 µM), 0.419. Moreover, the relative viability in the experiment with KN-93 (0.08 µM) is 0.965; with KN-93 (0.253 µM), 0.969; with KN-93 (2.53 µM), 0.914; with KN-93 (8 µM), 0.571.

NCI-H1563: the relative viability in the experiment with KN-93 + Dasatinib (first compound 0.08 µM) was determined as 0.473; with KN-93 + Dasatinib (first compound 0.253 µM), 0.415; in the experiment with KN-93 + Dasatinib (first compound 2.53 µM), 0.471; with KN-93 + Dasatinib (first compound 8 µM), 0.377; with KN-93 + Crizotinib (first compound 0.08 µM), 0.875; with KN-93 + Crizotinib (first compound 0.253 µM), 0.845. Besides, the relative viability with KN-93 + Crizotinib (first compound 2.53 µM) turned out to be 0.643; in the experiment with KN-93 + Crizotinib (first compound 8 µM), 0.601; with KN-93 + Alpelisib (first compound 0.08 µM), 0.922; with KN-93 + Alpelisib (first compound 0.253 µM), 0.947; with KN-93 + Alpelisib (first compound 2.53 µM), 0.906; with KN-93 + Alpelisib (first compound 8 µM), 0.758. Besides, the relative viability is 0.967 with KN-93 (0.08 µM), 0.936 with KN-93 (0.253 µM), 0.88 with KN-93 (2.53 µM) and 0.758 with KN-93 (8 µM).

With NCI-H1650, the relative viability with KN-93 + Dasatinib (first compound 0.08 µM) was 0.399; with KN-93 + Dasatinib (first compound 0.253 µM) it was 0.262; with KN-93 + Dasatinib (first compound 2.53 µM), 0.297; with KN-93 + Dasatinib (first compound 8 µM), 0.24; with KN-93 + Crizotinib (first compound 0.08 µM), 0.874; with KN-93 + Crizotinib (first compound 0.253 µM), 1.01. Moreover, the relative viability amounted to 1.15 with KN-93 + Crizotinib (first compound 2.53 µM); 0.547 with KN-93 + Crizotinib (first compound 8 µM); 0.702 with KN-93 + Olaparib (first compound 0.08 µM); 0.428 in the experiment with KN-93 + Olaparib (first compound 0.253 µM); 0.854 with KN-93 + Olaparib (first compound 2.53 µM); 0.608 with KN-93 + Olaparib (first compound 8 µM). Moreover, the relative viability was determined as 0.796 with KN-93 (0.08 µM), 0.808 in the experiment with KN-93 (0.253 µM), 0.941 with KN-93 (2.53 µM) and 0.569 with KN-93 (8 µM).

Take NCI-H1793: the relative viability with KN-93 + Dasatinib (first compound 0.08 µM) amounted to 0.406; with KN-93 + Dasatinib (first compound 0.253 µM) it was 0.374; in the experiment with KN-93 + Dasatinib (first compound 2.53 µM) it was 0.407; with KN-93 + Dasatinib (first compound 8 µM) it was 0.169; with KN-93 + Alpelisib (first compound 0.253 µM) it was 0.851; with KN-93 + Alpelisib (first compound 2.53 µM), 0.624. The relative viability with KN-93 + Alpelisib (first compound 8 µM) stood at 0.542; in the experiment with KN-93 + Olaparib (first compound 0.08 µM), 0.74; with KN-93 + Olaparib (first compound 0.253 µM) it was 0.83; with KN-93 + Olaparib (first compound 2.53 µM), 0.783; in the experiment with KN-93 + Olaparib (first compound 8 µM), 0.382; with KN-93 (0.08 µM) it was 0.742. For the same cell line, the relative viability was determined as 0.984 with KN-93 (0.253 µM), 1.11 with KN-93 (2.53 µM) and 0.264 in the experiment with KN-93 (8 µM).

Take SW 900: the relative viability with KN-93 + Dasatinib (first compound 0.08 µM) was 0.609; in the experiment with KN-93 + Dasatinib (first compound 0.253 µM) it was 0.568; with KN-93 + Dasatinib (first compound 2.53 µM), 0.65; in the experiment with KN-93 + Dasatinib (first compound 8 µM) it was 0.48; with KN-93 + Olaparib (first compound 0.08 µM), 1.13; in the experiment with KN-93 + Olaparib (first compound 0.253 µM), 0.766. Further, the relative viability with KN-93 + Olaparib (first compound 2.53 µM) came to 1.13; with KN-93 + Olaparib (first compound 8 µM), 0.559; in the experiment with KN-93 (0.08 µM) it was 0.9; with KN-93 (0.253 µM), 0.704; in the experiment with KN-93 (2.53 µM), 1; with KN-93 (8 µM), 0.508.
